Patent US20060204980A1, “Colorectal cancer therapies” (priority 2004, published 2006)
Blank lines part the entries; values can stand above or below the compound they belong to.

Tests used:
Format in all cases: cell-based
p53^−/− HCT116 cells = assay: Multiparametric flow cytometry of caspase-3/7 (DEVDase) activity and cell viability, p53-/- HCT116; conditions: TDZD 20 μM, 48 hours; for apoptosis induction (DEVDase activity and plasma membrane integrity): p53-/- HCT116, LiCl 30 mM
Method: (§1) The functional consequences of GSK3β inhibition were explored. Source and maintenance of p53^+/+ and p53^−/− HCT116 colorectal carcinoma cells were as described in Example 2. […] Alternatively, cells were incubated with GSK3β inhibitors LiCl (30 mM) or TDZD (20 μM), harvested after 48 hours and analyzed for cell viability (propidium iodide, red channel) and active caspase-3/7 activity (green channel, […]®, from Chemicon International Inc., Temecula, Calif.), by multiparametric flow cytometry as reported previously in Kim et al., Lancet, 362:205-209 (2003).
(§2) To clarify the role of GSK3β inhibition in p53-dependent apoptosis, HCT116 cells were treated with TDZD or LiCl and monitored changes in cell death. […] See the two center column panels of FIG. 6C. […] See right hand column panels of FIG. 6C.

GSK3β = GSK3β (Homo sapiens, UniProt P49841); assay: Immunoprecipitation and GSK3β kinase assay using glycogen synthase-derived peptide substrate, from treated HCT116 cells; set-up: harvested after 6 or 12 hours, and immunoprecipitated with an antibody to GSK3β; endogenous in cells; host or cells: HCT116 (p53+/+) colorectal carcinoma cells; conditions: p53+/+ HCT116 cells; Purvalanol A 10 μM, LiCl 30 mM, TDZD 20 μM; 6 or 12 hours
Sequence of GSK3β (P49841 whole entry): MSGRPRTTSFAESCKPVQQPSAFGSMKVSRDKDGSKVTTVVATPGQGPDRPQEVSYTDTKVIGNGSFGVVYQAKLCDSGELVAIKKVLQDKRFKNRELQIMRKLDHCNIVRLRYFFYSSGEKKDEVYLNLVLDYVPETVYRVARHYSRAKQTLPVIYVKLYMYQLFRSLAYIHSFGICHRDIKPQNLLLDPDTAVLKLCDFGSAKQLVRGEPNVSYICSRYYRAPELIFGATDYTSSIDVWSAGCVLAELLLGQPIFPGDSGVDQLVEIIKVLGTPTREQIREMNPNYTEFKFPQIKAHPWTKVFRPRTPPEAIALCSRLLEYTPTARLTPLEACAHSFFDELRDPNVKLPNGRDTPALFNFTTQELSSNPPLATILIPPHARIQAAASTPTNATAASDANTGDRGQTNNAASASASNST
Method: Immune complexes were mixed with a synthetic peptide containing a GSK3β phosphorylation site derived from the sequence of glycogen synthase (Upstate Biotechnology) in the presence of 10 μCi of γ-^32P-ATP (Amersham Corp., Piscataway, N.J.), after 30 min incubation at 30° C., the reaction mixtures were centrifuged briefly, and 15 μl of the supernatant was spotted onto P81 phosphocellulose paper (Whatman Inc., Clifton, N.J.). The membrane was washed three times with 175 mM phosphoric acid, rinsed once in acetone, and dried. Changes in peptide phosphorylation under the various conditions tested were determined by scintillation counting. Data were analyzed using the unpaired t test on a Graphpad Prism software package for Windows (Graphpad Inc., San Diego, Calif.). A P value of 0.05 was considered as statistically significant.

[1] = tested on: p53^+/+ HCT116 colorectal carcinoma cells; assay: Western blotting of p53 pathway proteins in treated p53+/+ HCT116 cells; conditions: for survivin expression (Western blot) / p53 expression (Western blot) / p21^Waf1/Cip1 expression (Western blot): p53+/+ HCT116; for p53 expression (Western blot) / p21^Waf1/Cip1 expression (Western blot): 6-24 hours
Method: (§3) Cells were collected and centrifuged at 3,000 rpm for 5 minutes at 4° C., and washed in PBS (pH 7.2). The cell pellet was solubilized in lysis buffer (20 mM Tris, pH 7.2, 0.5% deoxycholate, 1% Triton X-100, 0.1% SDS, 150 mM NaCl, 1 mM EDTA) containing proteases inhibitors (Complete, Roche Applied Science) for 30 min at 4° C. The lysate was cleared by centrifugation for 15 minutes, and protein concentration was evaluated using a Bio-Rad protein assay system (Bio-Rad Laboratories, Hercules, Calif.). Samples (30 μg) were separated by SDS-polyacrylamide gel, transferred to nylon membranes (Millipore), and incubated with primary antibodies to p53 (Oncogene Research Products, FL-393, Santa Cruz Biotechnology, Inc., Santa Cruz, Calif.), p21^Waf1/Cip1 (Oncogene Research Products), XIAP (BD Transduction Laboratories), survivin (NOVUS Biologicals, Littleton, Colo.), MDM2 (Santa Cruz Biotechnology, Inc.), p14^ARF (NOVUS Biologicals), caspase-3 (Cell Signaling Technology), cleaved caspase-3 (Cell Signaling Technology), β-catenin (BD Transduction Laboratories), cyclin B1 (GNS1, Santa Cruz Biotechnology, Inc.), GSK3β (Santa Cruz Biotechnology, Inc.), or β-sactin (Sigma) with detection of reactive bands by chemiluminescence (Amersham). Cells were analyzed for hypodiploid DNA content by propidium iodide staining and flow cytometry as described in O'Connor et al., Cancer Cell, 2:43-54 (2002). Chemicals whose source is not explicitly listed were or can be obtained from Sigma.
To explore the link between GSK3β inhibition and p53 modulation, in vivo, HCT116 cells were treated with Li, TDZD or SB216763, and analyzed cells by Western blotting. p53^+/+ or p53^−/− HCT116 cells were incubated with the following GSK3β inhibitors, LiCl (Sigma, 30 mM), thiadiazolidinone-8 (TDZD) (Calbiochem, 0-20 μM), or SB216763 (Sigma, 20 μM), cells were harvested after 6-24 hours, and samples were analyzed by Western blotting as described in Example 2. […]

p53^+/+ HCT116 cells = assay: Multiparametric flow cytometry of caspase-3/7 (DEVDase) activity and cell viability, p53+/+ HCT116; conditions: TDZD 20 μM, 48 hours; for caspase-dependent apoptosis (DEVDase activity and plasma membrane integrity): p53+/+ HCT116, LiCl 30 mM
Method: as §1, §2

[2] = tested on: p53^−/− HCT116 colorectal carcinoma cells; assay: Western blotting of p53 pathway proteins in treated p53-/- HCT116 cells
Method: as §3
To explore the link between GSK3β inhibition and p53 modulation, in vivo, HCT116 cells were treated with Li, TDZD or SB216763, and analyzed cells by Western blotting. p53^+/+ or p53^−/− HCT116 cells were incubated with the following GSK3β inhibitors, LiCl (Sigma, 30 mM), thiadiazolidinone-8 (TDZD) (Calbiochem, 0-20 μM), or SB216763 (Sigma, 20 μM), cells were harvested after 6-24 hours, and samples were analyzed by Western blotting as described in Example 2.

SMILES: [Cl-].[Li+] [LiCl, lithium chloride]
apoptosis induction (DEVDase activity and plasma membrane integrity) (p53^−/− HCT116 cells): considerably less effective at inducing apoptosis | GSK3β kinase activity (peptide phosphorylation) (GSK3β): suppressed GSK3β activity | survivin expression (Western blot) [1]: time-dependent downregulation of survivin | p53 expression (Western blot) [1]: elevation of p53 levels only at 24 hours after treatment | caspase-dependent apoptosis (DEVDase activity and plasma membrane integrity) (p53^+/+ HCT116 cells): reproduced caspase-dependent apoptosis

SMILES: Cn1cc(C2=C(c3ccc(Cl)cc3Cl)C(=O)NC2=O)c2ccccc21 [SB216763]
p21^Waf1/Cip1 expression (Western blot) [1]: prominent upregulation | p53 expression (Western blot) [1]: strong induction of p53

GSK3β kinase activity (peptide phosphorylation) (GSK3β): suppressed GSK3β activity
SMILES: Cn1sc(=O)n(Cc2ccccc2)c1=O [TDZD, 4-Benzyl-2-methyl-1,2,4-thiadiazolidine-3,5-dione]
apoptosis induction (DEVDase activity and plasma membrane integrity) (p53^−/− HCT116 cells): considerably less effective at inducing apoptosis | increase in fraction of apoptotic cells (p53^−/− HCT116 cells; p53-/- cells): 1.7 fold | MDM2 expression (Western blot) ([1]; HCT116 cells): reduced expression | p14^ARF expression (Western blot) ([1]; HCT116 cells, relative to vehicle): upregulation of p14^ARF | survivin expression (Western blot) [1]: time-dependent downregulation of survivin | p21^Waf1/Cip1 expression (Western blot) [1]: prominent upregulation | p53 expression (Western blot) [1]: strong induction of p53 | caspase-dependent apoptosis (DEVDase activity and plasma membrane integrity) (p53^+/+ HCT116 cells): reproduced caspase-dependent apoptosis | increase in fraction of apoptotic cells (p53^+/+ HCT116 cells; p53+/+ cultures): ~4.5 fold | survivin expression (Western blot) [2]: no changes in survivin expression

SMILES: O=C1Cc2c([nH]c3ccc([N+](=O)[O-])cc23)-c2ccccc2N1 [alsterpaullone]
p53 expression (Western blot) [1]: elevation of p53 levels
